Data from ChEMBL document CHEMBL5365500, “Development and Antibacterial Properties of 4-[4-(Anilinomethyl)-3-phenylpyrazol-1-yl]benzoic Acid Derivatives as Fatty Acid Biosynthesis Inhibitors” (J Med Chem, 2023).
Converted amounts (≈) assume the structure as drawn.

How the values were obtained:
Type in all cases: functional
Details in all cases: time 20-24 hrs
Staphylococcus aureus [1] = assay: Antimicrobial activity against antibiotic-resistant Staphylococcus aureus ATCC 33591 assessed as inhibition of visible growth measured after 20 to 24 hrs incubation by CLSI method
Staphylococcus aureus [2] = assay: Antimicrobial activity against antibiotic-resistant Staphylococcus aureus ATCC 33592 assessed as inhibition of visible growth measured after 20 to 24 hrs incubation by CLSI method
Enterococcus faecalis [3] = assay: Antimicrobial activity against antibiotic-resistant Enterococcus faecalis ATCC 51299 assessed as inhibition of visible growth measured after 20 to 24 hrs incubation by CLSI method
Enterococcus faecalis [4] = assay: Antimicrobial activity against antibiotic-susceptible Enterococcus faecalis ATCC 29212 assessed as inhibition of visible growth measured after 20 to 24 hrs incubation by CLSI method
Staphylococcus aureus [5] = assay: Antimicrobial activity against Staphylococcus aureus ATCC 25923 assessed as inhibition of visible growth measured after 20 to 24 hrs incubation by CLSI method
Bacillus subtilis = assay: Antimicrobial activity against antibiotic-resistant Bacillus subtilis ATCC 6623 assessed as inhibition of visible growth measured after 20 to 24 hrs incubation by CLSI method
Enterococcus faecium = assay: Antimicrobial activity against antibiotic-resistant Enterococcus faecium ATCC 700221 assessed as inhibition of visible growth measured after 20 to 24 hrs incubation by CLSI method
[6] = system: Staphylococcus epidermidis; assay: Antimicrobial activity against antibiotic-resistant Staphylococcus epidermidis ATCC 700296 assessed as inhibition of visible growth measured after 20 to 24 hrs incubation by CLSI method
Staphylococcus aureus [7] = assay: Antimicrobial activity against antibiotic-resistant Staphylococcus aureus ATCC BAA-2312 assessed as inhibition of visible growth measured after 20 to 24 hrs incubation by CLSI method
Staphylococcus aureus [8] = assay: Antimicrobial activity against antibiotic-resistant Staphylococcus aureus ATCC 700699 assessed as inhibition of visible growth measured after 20 to 24 hrs incubation by CLSI method

Structure (SMILES) | MIC (Staphylococcus aureus [1]) [µg/mL] | MIC (Staphylococcus aureus [2]) [µg/mL] | MIC (Enterococcus faecalis [3]) [µg/mL] | MIC (Enterococcus faecalis [4]) [µg/mL] | MIC (Staphylococcus aureus [5]) [µg/mL] | MIC (Bacillus subtilis) [µg/mL] | MIC (Enterococcus faecium) [µg/mL] | MIC [6] [µg/mL] | MIC (Staphylococcus aureus [7]) [µg/mL] | MIC (Staphylococcus aureus [8]) [µg/mL]
O=C(O)c1ccc(-n2cc(CNc3ccccc3)c(-c3ccc(F)c(F)c3)n2)cc1 | 16 (≈ 39.5 µM) | 32 (≈ 78.9 µM) | > 32 | > 32 | 16 (≈ 39.5 µM) | 8 (≈ 19.7 µM) | 32 (≈ 78.9 µM) | 16 (≈ 39.5 µM) | 32 (≈ 78.9 µM) | 32 (≈ 78.9 µM)
O=C(O)c1ccc(-n2cc(CNc3cc(Cl)cc(C(F)(F)F)c3)c(-c3ccc(F)cc3)n2)cc1 | 2 (≈ 4.08 µM) | 4 (≈ 8.17 µM) | 16 (≈ 32.7 µM) | 16 (≈ 32.7 µM) | 4 (≈ 8.17 µM) | 4 (≈ 8.17 µM) | 4 (≈ 8.17 µM) | 8 (≈ 16.3 µM) | 4 (≈ 8.17 µM) | 2 (≈ 4.08 µM)
O=C(O)c1ccc(-n2cc(CNc3ccc(F)c(F)c3)c(-c3cccc(F)c3)n2)cc1 | 16 (≈ 37.8 µM) | 16 (≈ 37.8 µM) | 32 (≈ 75.6 µM) | > 32 | 16 (≈ 37.8 µM) | 8 (≈ 18.9 µM) | 32 (≈ 75.6 µM) | 32 (≈ 75.6 µM) | 16 (≈ 37.8 µM) | 16 (≈ 37.8 µM)
O=C(O)c1ccc(-n2cc(CNc3cccc(F)c3)c(-c3ccc(F)cc3)n2)cc1 | 16 (≈ 39.5 µM) | 16 (≈ 39.5 µM) | > 32 | > 32 | 16 (≈ 39.5 µM) | 8 (≈ 19.7 µM) | > 32 | 32 (≈ 78.9 µM) | 32 (≈ 78.9 µM) | 16 (≈ 39.5 µM)
O=C(O)c1ccc(-n2cc(CNc3ccc(Oc4ccccc4)cc3)c(-c3cccc(F)c3)n2)cc1 | 2 (≈ 4.17 µM) | 4 (≈ 8.34 µM) | 8 (≈ 16.7 µM) | 8 (≈ 16.7 µM) | 4 (≈ 8.34 µM) | 2 (≈ 4.17 µM) | 4 (≈ 8.34 µM) | 8 (≈ 16.7 µM) | 2 (≈ 4.17 µM) | 4 (≈ 8.34 µM)
O=C(O)c1ccc(-n2cc(CNc3cc(F)cc(C(F)(F)F)c3)c(-c3cccc(F)c3)n2)cc1 | 1 (≈ 2.11 µM) | 1 (≈ 2.11 µM) | 8 (≈ 16.9 µM) | 8 (≈ 16.9 µM) | 2 (≈ 4.22 µM) | 1 (≈ 2.11 µM) | 4 (≈ 8.45 µM) | 4 (≈ 8.45 µM) | 2 (≈ 4.22 µM) | 2 (≈ 4.22 µM)
CC(C)c1ccc(NCc2cn(-c3ccc(C(=O)O)cc3)nc2-c2ccc(F)cc2)cc1 | 4 (≈ 9.31 µM) | 8 (≈ 18.6 µM) | 8 (≈ 18.6 µM) | 16 (≈ 37.3 µM) | 8 (≈ 18.6 µM) | 2 (≈ 4.66 µM) | 4 (≈ 9.31 µM) | 8 (≈ 18.6 µM) | 4 (≈ 9.31 µM) | 4 (≈ 9.31 µM)
O=C(O)c1ccc(-n2cc(CNc3cc(F)c(F)c(F)c3)c(-c3cccc(F)c3)n2)cc1 | 1 (≈ 2.27 µM) | 4 (≈ 9.06 µM) | 32 (≈ 72.5 µM) | 32 (≈ 72.5 µM) | 4 (≈ 9.06 µM) | 4 (≈ 9.06 µM) | 16 (≈ 36.2 µM) | 8 (≈ 18.1 µM) | 4 (≈ 9.06 µM) | 8 (≈ 18.1 µM)
CC(C)(C)c1ccc(NCc2cn(-c3ccc(C(=O)O)cc3)nc2-c2ccc(F)cc2)cc1 | 2 (≈ 4.51 µM) | 4 (≈ 9.02 µM) | 8 (≈ 18 µM) | 8 (≈ 18 µM) | 4 (≈ 9.02 µM) | 2 (≈ 4.51 µM) | 4 (≈ 9.02 µM) | 8 (≈ 18 µM) | 2 (≈ 4.51 µM) | 4 (≈ 9.02 µM)
O=C(O)c1ccc(-n2cc(CNc3ccc(Cl)c(Cl)c3)c(-c3ccc(F)c(F)c3)n2)cc1 | 0.5 (≈ 1.05 µM) | 1 (≈ 2.11 µM) | 8 (≈ 16.9 µM) | 4 (≈ 8.43 µM) | 1 (≈ 2.11 µM) | 0.5 (≈ 1.05 µM) | 2 (≈ 4.22 µM) | 2 (≈ 4.22 µM) | 1 (≈ 2.11 µM) | 2 (≈ 4.22 µM)
O=C(O)c1ccc(-n2cc(CNc3cc(F)c(F)c(F)c3)c(-c3ccc(F)c(F)c3)n2)cc1 | 4 (≈ 8.71 µM) | 8 (≈ 17.4 µM) | > 32 | > 32 | 8 (≈ 17.4 µM) | 4 (≈ 8.71 µM) | 8 (≈ 17.4 µM) | 16 (≈ 34.8 µM) | 8 (≈ 17.4 µM) | 8 (≈ 17.4 µM)
O=C(O)c1ccc(-n2cc(CNc3cc(F)cc(C(F)(F)F)c3)c(-c3ccc(F)c(F)c3)n2)cc1 | 1 (≈ 2.04 µM) | 1 (≈ 2.04 µM) | 8 (≈ 16.3 µM) | 8 (≈ 16.3 µM) | 2 (≈ 4.07 µM) | 1 (≈ 2.04 µM) | 4 (≈ 8.14 µM) | 4 (≈ 8.14 µM) | 2 (≈ 4.07 µM) | 2 (≈ 4.07 µM)
O=C(O)c1ccc(-n2cc(CNc3cccc(C(F)(F)F)c3)c(-c3ccc(F)cc3)n2)cc1 | 2 (≈ 4.39 µM) | 8 (≈ 17.6 µM) | 16 (≈ 35.1 µM) | 16 (≈ 35.1 µM) | 8 (≈ 17.6 µM) | 2 (≈ 4.39 µM) | 8 (≈ 17.6 µM) | 8 (≈ 17.6 µM) | 4 (≈ 8.78 µM) | 4 (≈ 8.78 µM)
O=C(O)c1ccc(-n2cc(CNc3cc(Cl)c(F)cc3F)c(-c3ccc(F)c(F)c3)n2)cc1 | > 32 | > 32 | > 32 | > 32 | > 32 | > 32 | > 32 | > 32 | > 32 | > 32
O=C(O)c1ccc(-n2cc(CNc3ccc(Br)c(C(F)(F)F)c3)c(-c3ccc(F)cc3)n2)cc1 | 0.5 (≈ 0.936 µM) | 2 (≈ 3.74 µM) | 4 (≈ 7.49 µM) | 4 (≈ 7.49 µM) | 2 (≈ 3.74 µM) | 1 (≈ 1.87 µM) | 2 (≈ 3.74 µM) | 4 (≈ 7.49 µM) | 1 (≈ 1.87 µM) | 1 (≈ 1.87 µM)
O=C(O)c1ccc(-n2cc(CNc3ccc(Br)c(Cl)c3)c(-c3ccc(F)c(F)c3)n2)cc1 | 0.5 (≈ 0.964 µM) | 2 (≈ 3.86 µM) | 4 (≈ 7.71 µM) | 4 (≈ 7.71 µM) | 1 (≈ 1.93 µM) | 2 (≈ 3.86 µM) | 4 (≈ 7.71 µM) | 2 (≈ 3.86 µM) | 1 (≈ 1.93 µM) | 2 (≈ 3.86 µM)
Cc1cc(NCc2cn(-c3ccc(C(=O)O)cc3)nc2-c2ccc(F)cc2)ccc1F | 8 (≈ 19.1 µM) | 16 (≈ 38.1 µM) | > 32 | > 32 | 16 (≈ 38.1 µM) | 4 (≈ 9.54 µM) | > 32 | 32 (≈ 76.3 µM) | 16 (≈ 38.1 µM) | 8 (≈ 19.1 µM)
Cc1cc(NCc2cn(-c3ccc(C(=O)O)cc3)nc2-c2ccc(F)cc2)ccc1Br | 2 (≈ 4.16 µM) | 4 (≈ 8.33 µM) | 8 (≈ 16.7 µM) | 16 (≈ 33.3 µM) | 4 (≈ 8.33 µM) | 1 (≈ 2.08 µM) | 8 (≈ 16.7 µM) | 4 (≈ 8.33 µM) | 2 (≈ 4.16 µM) | 2 (≈ 4.16 µM)
O=C(O)c1ccc(-n2cc(CNc3cc(Cl)c(F)c(Cl)c3)c(-c3ccc(F)cc3)n2)cc1 | 0.5 (≈ 1.05 µM) | 1 (≈ 2.11 µM) | 4 (≈ 8.43 µM) | 8 (≈ 16.9 µM) | 1 (≈ 2.11 µM) | 1 (≈ 2.11 µM) | 4 (≈ 8.43 µM) | 2 (≈ 4.22 µM) | 1 (≈ 2.11 µM) | 2 (≈ 4.22 µM)
